From ChEMBL document CHEMBL5500329, “Identification of dihydroquinolizinone derivatives with nitrogen heterocycle moieties as new anti-HBV agents” (Eur J Med Chem, 2024)

Experiments:
Hepatitis B virus [1] = test: Antiviral activity against Hepatitis B virus assessed as inhibition of HbeAg level; assay type: functional, organism-based
Hepatitis B virus [2] = test: Antiviral activity against Hepatitis B virus assessed as inhibition of HbsAg level; assay type: functional, organism-based
Hepatitis B virus [3] = test: Antiviral activity against Hepatitis B virus assessed as inhibition of HBV DNA production; assay type: functional, organism-based
HT-22 [4] = test: Cytotoxicity against mouse HT-22 cells assessed as reduction in cell viability at 10 uM; assay type: toxicity, cell-based; conditions: ht-22, 10 µM
[5] = Neurotoxicity in PAPD7-knockout mouse HT-22 cells assessed as reduction in neurite length; assay type: toxicity, cell-based
[6] = Cmax in mouse at 10 mg/kg, po administered as single dose; assay type: ADME, organism-based; conditions: in vivo
[7] = Tmax in mouse at 10 mg/kg, po administered as single dose; assay type: ADME, organism-based; conditions: in vivo
[8] = MRT (0 to infinity) in mouse at 10 mg/kg, po administered as single dose; assay type: ADME, organism-based; conditions: in vivo
[9] = Neurotoxicity in mouse HT-22 cells assessed as reduction in neurite length at 10 to 30 uM incubated for 24 to 48 hrs; assay type: toxicity, cell-based; conditions: ht-22, 30 µM, dose lower 10 µM, time lower 24 hrs, dose upper 30 µM, time upper 48 hrs
[10] = AUC (0 to infinity) in mouse at 10 mg/kg, po administered as single dose; assay type: ADME, organism-based; conditions: in vivo
[11] = Neurotoxicity in PAPD5-knockout mouse HT-22 cells assessed as reduction in neurite length; assay type: toxicity, cell-based
HT-22 [12] = test: Cytotoxicity against mouse HT-22 cells assessed as reduction in cell viability at 30 uM; assay type: toxicity, cell-based; conditions: ht-22, 30 µM
[13] = Half-life in mouse at 10 mg/kg, po administered as single dose; assay type: ADME, organism-based; conditions: in vivo
[14] = Neurotoxicity in mouse DRG neuron assessed as reduction in neurite length at 10 uM incubated for 24 hrs; assay type: toxicity, cell-based
[15] = Neurotoxicity in mouse HT-22 cells assessed as reduction in neurite length at 30 uM incubated for 48 hrs; assay type: toxicity, cell-based; conditions: ht-22, 48 h
[16] = Neurotoxicity in mouse HT-22 cells assessed as reduction in neurite length at 10 uM; assay type: toxicity, cell-based; conditions: ht-22, 10 µM
[17] = Cytotoxicity against mouse HT-22 cells assessed as cell viability at 30 uM relative to control; assay type: toxicity, cell-based; conditions: read-out: Activity

SMILES | IC50 (Hepatitis B virus [1]) [µM] | IC50 (Hepatitis B virus [2]) [µM] | IC50 (Hepatitis B virus [3]) [µM] | also measured
COc1cc2c(cc1OCCCN1CCC3(CCCO3)CC1)CC(C(C)C)n1cc(C(=O)O)c(=O)cc1-2 (stereo not drawn) | > 1 | 0.062 | 0.217 | –
COc1cc2c(cc1OC[C@@H]1CCCO1)C[C@@H](C(C)C)n1cc(C(=O)O)c(=O)cc1-2 | 0.0006 | 0.0006 | 0.0006 | –
COc1cc2c(cc1N1CCC(C(=O)O)CC1)CC(C(C)C)n1cc(C(=O)O)c(=O)cc1-2 (stereo not drawn) | > 1 | 1.24 | 0.405 | –
COc1cc2c(cc1N1CCC3(CCOCC3)C1)CC(C(C)C)n1cc(C(=O)O)c(=O)cc1-2 (stereo not drawn) | 0.005 | 0.0006 | < 0.0016 | –
COCCCOc1cc2c(cc1OC)-c1cc(=O)c(C(=O)O)cn1[C@H](C(C)C)C2 | 0.091 | 0.005 | 0.086 | Activity (HT-22 [4]): Non-Toxic; Activity [5]: Toxic; Cmax [6]: 6630 ng/mL; Tmax [7]: 0.42 h; MRT inf [8]: 1.66 h; Activity [9]: Toxic; AUC(0-inf) [10]: 10800 ng·h/mL; Activity [11]: Toxic; Activity (HT-22 [12]): Non-Toxic; half-life [13]: 2.39 h
COc1cc2c(cc1N1CCOCC1)C[C@@H](C(C)C)n1cc(C(=O)O)c(=O)cc1-2 | 0.287 | 0.023 | – | Activity (HT-22 [4]): Non-Toxic; Cmax [6]: 7620 ng/mL; Tmax [7]: 0.58 h; Activity [14]: Non-Toxic; MRT inf [8]: 2.69 h; Activity [15]: Non-Toxic; Activity [16]: Non-Toxic; AUC(0-inf) [10]: 23400 ng·h/mL; Activity (HT-22 [12]): Non-Toxic; half-life [13]: 2.09 h
COc1cc2c(cc1N1CCC3(CCOCC3)C1)C[C@@H](C(C)C)n1cc(C(=O)O)c(=O)cc1-2 | 0.071 | 0.005 | – | Activity (HT-22 [4]): Non-Toxic; Activity (HT-22 [12]): Non-Toxic
COc1cc2c(cc1N1CCC3(CCOCC3)C1)C[C@H](C(C)C)n1cc(C(=O)O)c(=O)cc1-2 | 0.875 | 0.1 | – | –
COc1cc2c(cc1N1CCC3(C1)OCCO3)CC(C(C)C)n1cc(C(=O)O)c(=O)cc1-2 (stereo not drawn) | 0.038 | 0.0018 | 0.0076 | –
COc1cc2c(cc1N1CCC(O)CC1)CC(C(C)C)n1cc(C(=O)O)c(=O)cc1-2 (stereo not drawn) | > 1 | 0.041 | 0.3 | –
COc1cc2c(cc1OCCCN1CCC3(CCOC3)C1)CC(C(C)C)n1cc(C(=O)O)c(=O)cc1-2 (stereo not drawn) | > 1 | 0.193 | 0.031 | –
COc1cc2c(cc1OCCCN1CCC3(C1)OCCO3)C[C@H](C(C)C)n1cc(C(=O)O)c(=O)cc1-2 | 0.856 | 0.189 | – | –
COc1cc2c(cc1N1CCC3(CCOC3)C1)CC(C(C)C)n1cc(C(=O)O)c(=O)cc1-2 (stereo not drawn) | 0.062 | 0.005 | 0.332 | –
COc1cc2c(cc1N1CCC3(CCCO3)CC1)CC(C(C)C)n1cc(C(=O)O)c(=O)cc1-2 (stereo not drawn) | 0.295 | 0.027 | 0.04 | –
COc1cc2c(cc1OC1CCC3(CCOCC3)CC1)CC(C(C)C)n1cc(C(=O)O)c(=O)cc1-2 (stereo not drawn) | 0.047 | 0.151 | 0.038 | –
COc1cc2c(cc1N1CC3COCC3C1)CC(C(C)C)n1cc(C(=O)O)c(=O)cc1-2 (stereo not drawn) | 0.236 | 0.014 | 0.064 | –
COc1cc2c(cc1N1CCC3(C1)OCCO3)C[C@H](C(C)C)n1cc(C(=O)O)c(=O)cc1-2 | 0.668 | 0.126 | – | –
COc1cc2c(cc1N1CCOCC1)C[C@H](C(C)C)n1cc(C(=O)O)c(=O)cc1-2 | > 1 | 0.599 | – | –
COc1cc2c(cc1N1CCC(C(F)(F)F)CC1)CC(C(C)C)n1cc(C(=O)O)c(=O)cc1-2 (stereo not drawn) | 0.204 | 0.03 | 0.08 | –
COc1cc2c(cc1OCCCN1CCC3(C1)OCCO3)CC(C(C)C)n1cc(C(=O)O)c(=O)cc1-2 (stereo not drawn) | 0.319 | 0.033 | 0.0473 | –
COc1cc2c(cc1N1CCOCC1)CC(C(C)C)n1cc(C(=O)O)c(=O)cc1-2 (stereo not drawn) | 0.099 | 0.008 | 0.008 | –
COc1cc2c(cc1OCCCN1CCC3(C1)OCCO3)C[C@@H](C(C)C)n1cc(C(=O)O)c(=O)cc1-2 | 0.195 | 0.023 | – | Activity (HT-22 [4]): Non-Toxic; viability at 30 µM [17]: 74.9%
COc1cc2c(cc1N1CCC3(C1)OCCO3)C[C@@H](C(C)C)n1cc(C(=O)O)c(=O)cc1-2 | 0.084 | 0.004 | – | Activity (HT-22 [4]): Non-Toxic; Activity (HT-22 [12]): Non-Toxic
COc1cc2c(cc1N1CCC3(CC1)OCCO3)CC(C(C)C)n1cc(C(=O)O)c(=O)cc1-2 (stereo not drawn) | 0.087 | 0.012 | 0.0005 | –
COc1cc2c(cc1N1CCC3(CCN(C(=O)OC(C)(C)C)CC3)C1)CC(C(C)C)n1cc(C(=O)O)c(=O)cc1-2 (stereo not drawn) | 0.111 | 0.016 | 0.05 | –
